Measurements from patent US20240376119A1, “SPIRO COMPOUND AND USE THEREOF” (CSPC Zhongqi Pharmaceutical Technology (Shijiazhuang) Co., …, priority 2021, published 2024).

Tests used:
[1] = test system: human acute myeloid leukemia MV-4-11 cells; test: In vitro inhibitory effect on the proliferation of MV-4-11 cells (MTT, 72 h); format: cell-based; conditions: MV4-11, 72 hours exposure
Experimental: The human acute myeloid leukemia MV-4-11 cells used in the assay were purchased from Shanghai Institutes for Biological Sciences, Chinese Academy of Sciences. The complete culture medium required for cell culture was IMDM (GIBCO Company), which was supplemented with 10% fetal bovine serum (GIBCO Company). Cells were cultured in a 37° C., 5% CO2 incubator. The reagents used in the assay included dimethyl sulfoxide (purchased from Tianjin Kemiou Chemical Reagent Co., Ltd.), and MTT (Shanghai Topbiochem Co., Ltd., CAS. NO. 298-93-1). The test substance was sealed and stored at 4° C.
Dimethyl sulfoxide was used as the solvent to fully dissolve the test substance and prepare a stock solution with a concentration of 5×10^−2 mol/L. The stock solution was stored at −20° C. A complete culture medium was used as the diluent, and the test substance was diluted to different concentrations in a gradient for later use. 100 µL/well (2×10^4 cells/well) of a suspension of MV-4-11 cells in the complete culture medium was added to a 96-well culture plate. 100 μL/well of the corresponding test substances at different concentrations were added respectively. 8 concentrations were set for each test substance, and 3 duplicate wells were set for each concentration. The plate was cultured in a 37° C., 5% CO2 incubator. 20 μL/well of MTT was added after 72 hours of exposure to the test substances. The plate was cultured for 4 hours in a 37° C., 5% CO2 incubator. The supernatant was discarded, and 150 μL/well of dimethyl sulfoxide was added. The plate contents were oscillated and mixed evenly. The microplate reader was used to detect the OD value at a wavelength of 550 nm. The well only containing the cell suspension without test substance was a control well, and the well only containing the complete culture medium was a blank well. The inhibition rate of the cell growth was calculated with the following formula: • Inhibition rate=(ODcontrol well-ODtest well)/(ODcontrol well-ODblank well)*100%. According to the inhibition rates at each concentration, SPSS software was used to calculate the half inhibitory concentration IC50 value.

[2] = Mouse tolerance assay (once daily for 7 consecutive days); format: in vivo; conditions: mouse, in vivo; for Number of animals (number of deaths/total number): 7 days
Experimental: • Assay animals: ICR mice, female, 5 weeks old • Solvent: 2% DMSO+98% (0.5% MC), treated by sufficient vortex and sonicated to obtain a uniform suspension • Assay method: Female ICR mice were divided into 4 groups according to weight balance, with 5 mice in each group. The administration doses were 50 mg/kg and 200 mg/kg respectively. The compound was administrated once daily for 7 consecutive days.

Structure (SMILES): [2H][C@@]1(N)c2ccccc2OC12CCN(c1nc(N)c(Sc3ccnc(N)c3Cl)nc1C(C)=O)CC2 [Compound 56, (R)-1-(5-amino-6-((2-amino-3-chloropyridine-4-yl)sulfanyl)-3-(3-amino-3-deuterium-spiro[benzofuran-2,4′-piperidine]-1′-yl)pyrazine-2-yl)ethanone]
- IC50 [1]: ≤ 20 nM
- MTD at 7 days ([2]; female, ICR): > 200 mg/kg
- Number of animals (number of deaths/total number) ([2]; female, ICR, 50 mg/kg): 0/5F
- Number of animals (number of deaths/total number) ([2]; female, ICR, 200 mg/kg): 0/5F
- tolerance in mice compared with positive control compound TW-45 [2]: significantly better
